Compared with `O=c1c(C2=Nc3ccccc3S(=O)(=O)N2)c(O)c2ccccc2n1CCCCO`, `Cc1oc(-c2ccccc2)nc1CCOc1ccc(COc2ccccc2CC(=O)O)cn1` is lower in melting point: 238 to 240 °C for the first, 159 to 160 °C for the second.

First: NC(=O)c1ccccc1NC(=O)c1cccnc1
Second: O=C(c1ccccc1Cl)c1cc(Cl)cc(Br)c1I
The melting point of the first is higher: 220 to 222 °C for the first, 86 to 87 °C for the second.

Compared with `CNCC(O)c1cc(C(F)(F)F)nc2c(C(F)(F)F)cccc12` (configuration not stated), `CCCCN(C(=O)c1cnc(N2CCNC2=O)nc1N)c1cccc(C(F)(F)F)c1` is higher in melting point: 158 °C for the first, 234 to 235 °C for the second.

Compared with `CCCCOC(=O)c1ccc(C(=O)NNC(=O)c2ccc(C(=O)OCCCC)cc2)cc1`, `COC(=O)Cc1ccc(C(=C2CC(C)(C)CC(C)(C)C2)c2ccc(O)cc2)cc1` is lower in melting point: 166 to 168 °C for the first, 154 to 155 °C for the second.

First: COc1cccc(C(=O)NCC(=O)N2c3ccccc3N(Cc3ccccc3)C(=O)[C@H]3CCC[C@H]32)c1 (relative stereo)
Second: COc1ccccc1/C=C/CN1CCC(=O)C(C(c2ccccc2)c2ccccc2)C1 (configuration not stated)
The melting point of the first is higher: 160 to 161 °C for the first, 117 to 118 °C for the second.

Compared with `CN(C)C(=O)c1ccc([N+](=O)[O-])cc1S(N)(=O)=O`, `Cc1ccc(NCCN(C)C)c([N+](=O)[O-])c1` is lower in melting point: 159 to 160 °C for the first, 59 °C for the second.

Compared with `O=C1CCCc2ccc(OCCCCN3CCN(c4cccc5c4OCC5)CC3)nc2N1`, `COc1cccc2c(CCCN(C3CCC3)C3COc4c(F)ccc(C(N)=O)c4C3)coc12` (configuration not stated) is lower in melting point: 176 to 177 °C for the first, 131 to 140 °C for the second.

Compared with `Nc1ccc2ccc(N)nc2n1`, `COc1ccc2ccc(N3C(=O)c4ccccc4C3OC(=O)COCC(C)C)nc2n1` (configuration not stated) is lower in melting point: 222 to 223 °C for the first, 114 °C for the second.

Compared with `C=CCN1CCc2nc(NCC)nc(-c3ccc(Cl)cc3)c2C1`, `Cc1ccc2c(Cl)cc(S(=O)(=O)NCc3ccc(Cl)cc3)c(O)c2n1` is higher in melting point: 104 to 106 °C for the first, 158 to 161 °C for the second.

First: Oc1ccc(Oc2ccc(C(F)(F)F)cc2Cl)cc1
Second: CC(=O)c1nc2cc(Cl)c(OCC(F)(F)F)cc2cc1OCc1ccccc1
The melting point of the first is lower: 55 to 56 °C for the first, 110 to 112 °C for the second.

Compared with `O=C(O)[C@H](CCc1ccccc1)Oc1ccc(-c2ccco2)cc1`, `NS(=O)(=O)c1ccc(-c2c(-c3ccccc3)noc2CC(=O)C(F)(F)F)cc1` is lower in melting point: 140 to 142 °C for the first, 132 to 139 °C for the second.

First: CCCN(CCC)c1nc(C#N)c(C#N)nc1CC
Second: CCc1nn2c(-c3ccccc3)ccnc2c1C#N
The melting point of the first is lower: 58 to 60 °C for the first, 132 to 134 °C for the second.

First: CC(=O)N(C)c1cccc(-c2ccc3nnc(N)n3n2)c1
Second: Nc1ccc(C(=O)c2cc(F)ccc2F)cc1
The melting point of the first is higher: 196 to 197 °C for the first, 101 to 103 °C for the second.

First: CC(C)(C)OC(=O)c1ncn2c1[C@@H]1CCCN1C(=O)c1cc(F)ccc1-2
Second: COC[C@@H]1CCCN1S(=O)(=O)c1ccc2c(c1)C(=O)C1=NCC(C)(C)CN12
The melting point of the first is lower: 154 to 155 °C for the first, 161 to 164 °C for the second.

Compared with `CC(C)(C)OC(=O)N1CCN(c2ccc3[nH]cc(Sc4ccccc4)c3c2)CC1`, `CC(C)(C)OC(=O)NN(C[C@H](O)[C@H](Cc1ccccc1)NC(=O)OCc1ccccc1)C1CCCCC1` is lower in melting point: 174 °C for the first, 142 to 143 °C for the second.

First: COc1ccc(C(=O)C2CCN(C(C)=O)CC2)c(O)c1
Second: Cc1cc2c(cc1C)OCCC(C(=O)O)=C2
The melting point of the first is lower: 138 to 140 °C for the first, 266 to 267 °C for the second.

`CC(c1cc(Br)c(O)c(Br)c1)(c1cc(Br)c(O)c(Br)c1)c1cc(Br)c(O)c(Br)c1` and `COC(=O)Cc1cc(Br)c(S(=O)(=O)c2ccc(O)c(C(C)C)c2)c(Br)c1` cannot be ordered by melting point: 160 °C for the first, 159 to 160 °C for the second.

First: COc1c(C=O)c(C)cc2c1C(C)(C)CCC2(C)C
Second: COc1ccc(Cn2c(=O)cc(C)c3cnc(N4CCC[C@H]4CO)nc32)cc1Cl
The melting point of the first is lower: 78 °C for the first, 150 to 153 °C for the second.

Compared with `Cc1ccc(S(N)(=O)=O)cc1C(O)CCl` (configuration not stated), `Cc1cc(S(=O)(=O)Nc2ccc(N)cc2)c2c(C)ccc(C(C)C)cc1-2` is lower in melting point: 126 °C for the first, 88 to 90 °C for the second.

Compared with `Oc1cc(OCc2ccccc2)cc(OCc2ccccc2)c1C/C=C/c1ccccc1`, `N#CC(=Cc1ccc(C=Cc2ccccc2)cc1)S(=O)(=O)c1ccccc1` is higher in melting point: 76 to 78 °C for the first, 179 to 183 °C for the second.

First: COc1ncc(NC(N)=S)c(OC)n1
Second: CC(=O)Nc1nc2c(ncn2COCCOC(C)=O)c(=O)[nH]1
The melting point of the first is lower: 175 °C for the first, 202 to 204 °C for the second.

Compared with `CCCCCCCCCCN1C(=O)C2CC2(c2ccc(N)cc2)C1=O` (configuration not stated), `CN(Cc1ccc(N)cc1)C1CCN(c2ccc(N)cc2)CC1` is higher in melting point: 92 to 94 °C for the first, 123 °C for the second.

First: CN(C)c1cc(CO)ncn1
Second: CCc1ccc(C#CC(C)N(O)C(=O)NC)cc1 (configuration not stated)
The melting point of the first is higher: 137 to 139 °C for the first, 126 to 128 °C for the second.

First: CCOC(=O)C(CC(=O)c1ccccc1C(F)(F)F)(NC(C)=O)C(=O)OCC
Second: CCOC(=O)Cc1c(C(=O)O)c(CC)c(C(=O)c2ccc(Cl)cc2)n1C
The melting point of the first is lower: 104 to 105 °C for the first, 184 to 186 °C for the second.

First: CCOC(=O)C1Oc2ccccc2Cc2ccccc2O1
Second: O=C(Nc1ccc2c(c1)OCO2)N1Cc2ccccc2C1
The melting point of the first is lower: 86.5 to 88.5 °C for the first, 165 to 166 °C for the second.

First: C[C@@H](NS(=O)(=O)c1ccc(-c2c(C#N)c3cc(Cl)ncc3n2C2CCC2)nc1)C(F)(F)F
Second: O[C@H]1CC[C@H](n2cnc(-c3ccc(F)cc3)c2-c2ccnc(Nc3ccccc3)n2)CC1
The melting point of the first is lower: 181 to 185 °C for the first, 204 to 206 °C for the second.

First: CSC1(SC)C(=O)CC2C3CCC4=CC(=O)C=CC4(C)C3(F)C(OC(C)=O)CC21C (configuration not stated)
Second: CCc1cc(C)cc(CC)c1C1C(=O)CC(CC(C)S(=O)(=O)CC)CC1=O (configuration not stated)
The melting point of the first is higher: 225 to 227 °C for the first, 62 to 65 °C for the second.

First: O=C(O)CCCCCNC(=O)C1Cc2ccccc2N1S(=O)(=O)c1ccc(-c2cccc(C(F)(F)F)c2)cc1 (configuration not stated)
Second: COC(=O)CS(=O)CCCCCn1nc(-c2ccccc2)c(-c2ccccc2)c1-c1ccccc1 (configuration not stated)
The melting point of the first is lower: 50 °C for the first, 108 to 109 °C for the second.

First: COC(=O)C(NS(=O)(=O)c1ccc(-c2ccc(NC(=O)c3oc4cccc(C(C)OC)c4c3C)cc2)cc1)C(C)C (configuration not stated)
Second: COc1ccc(C(=O)Nc2ccccc2)cc1NC(=S)Nc1ccc(Cl)c(C(F)(F)F)c1
The melting point of the first is higher: 186 to 188 °C for the first, 172 to 173 °C for the second.

First: Cc1ccc(C[C@H]2NC(=O)CN(Cc3ccccc3)C2=O)cc1C
Second: Cc1cccc(CC(=O)N[C@H]2C[C@H](C(=O)O)Nc3cc(Cl)cc(Cl)c32)c1 (relative stereo)
The melting point of the first is higher: 191 to 192 °C for the first, 169 to 171 °C for the second.

Compared with `CN1CCC(C2(O)c3ccccc3Oc3ccc(F)cc32)CC1` (configuration not stated), `CC(C)N1Cc2c(F)cccc2N(CCN2CC=C(c3c[nH]c4cc(F)ccc34)CC2)S1(=O)=O` is lower in melting point: 193 to 200 °C for the first, 107 to 109 °C for the second.

First: CC(=O)NCC1CN(c2ccc(N3CCN(C(=O)CCN4CCOCC4)CC3)c(F)c2)C(=O)O1 (configuration not stated)
Second: NC(=S)NN1CCc2cc(Cl)ccc21
The melting point of the first is higher: 209 to 210 °C for the first, 199 to 200 °C for the second.

First: COC(=O)c1nc(Cl)c(Cl)c(N)c1I
Second: COc1ccc(C(=O)c2cccc(Br)c2F)cc1
The melting point of the first is higher: 122 to 123 °C for the first, 88 to 90 °C for the second.

Compared with `NC(=S)c1cn(C2OC(CO)C(O)C2O)nn1` (configuration not stated), `N#CNC(=S)Nc1ccc([N+](=O)[O-])cc1` is higher in melting point: 152 to 154 °C for the first, greater than 250 °C for the second.

First: COc1ccc(CN(CCN(C)CCCN=C(NC#N)NCCSCc2csc(NC(=N)N)n2)c2ccccn2)cc1
Second: O=C(O)CCCOc1ccc([N+](=O)[O-])cc1
The melting point of the first is lower: 54 °C for the first, 116 to 118 °C for the second.

Compared with `CCn1c2ccccc2c2oc(C#N)cc(=O)c21`, `N#CC(Br)c1ccccn1` (configuration not stated) is lower in melting point: 184 to 185 °C for the first, 62 to 64 °C for the second.

Reference: a melting point compilation (Tetko et al.; mined from patent text by program, amines drawn as free bases though some values may be those of a salt)
